Reference: patent US6288122A, “Gardos channel antagonists” (Icagen, Inc., priority 1999, dated 2001)
Where “and” joins values, the source holds several entries; their conditions need not be identical. Equal values may be shown once. Entries after “also recorded” stand apart in the source; their conditions may differ. Read-outs that look alike come from different tables or passages of the source.

Assays:
in vitro = details: human, microsomes, pH 7.4
IKs [1] = molecular target: T1, IKs (Cavia porcellus, UniProt O70344); experiment: Whole cell patch clamp recordings of IKs current in guinea pig myocytes; assay type: cell-based; details: estimated IC50, read-out: Est. IC50 Potency vs. IKs
T1 construct: Recordings of IKs current were made using the whole cell patch clamp methodology on guinea pig myocytes; endogenous in cells; host or cells: guinea pig myocytes (method of Turgeon et al., Circ. Res. 75: 879-86, 1994)
T1 sequence (Q60409 whole entry): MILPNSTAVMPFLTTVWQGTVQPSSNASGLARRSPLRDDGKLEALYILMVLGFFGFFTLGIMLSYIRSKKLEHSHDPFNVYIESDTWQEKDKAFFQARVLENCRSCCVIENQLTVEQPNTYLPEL
T1 sequence (O70344 whole entry): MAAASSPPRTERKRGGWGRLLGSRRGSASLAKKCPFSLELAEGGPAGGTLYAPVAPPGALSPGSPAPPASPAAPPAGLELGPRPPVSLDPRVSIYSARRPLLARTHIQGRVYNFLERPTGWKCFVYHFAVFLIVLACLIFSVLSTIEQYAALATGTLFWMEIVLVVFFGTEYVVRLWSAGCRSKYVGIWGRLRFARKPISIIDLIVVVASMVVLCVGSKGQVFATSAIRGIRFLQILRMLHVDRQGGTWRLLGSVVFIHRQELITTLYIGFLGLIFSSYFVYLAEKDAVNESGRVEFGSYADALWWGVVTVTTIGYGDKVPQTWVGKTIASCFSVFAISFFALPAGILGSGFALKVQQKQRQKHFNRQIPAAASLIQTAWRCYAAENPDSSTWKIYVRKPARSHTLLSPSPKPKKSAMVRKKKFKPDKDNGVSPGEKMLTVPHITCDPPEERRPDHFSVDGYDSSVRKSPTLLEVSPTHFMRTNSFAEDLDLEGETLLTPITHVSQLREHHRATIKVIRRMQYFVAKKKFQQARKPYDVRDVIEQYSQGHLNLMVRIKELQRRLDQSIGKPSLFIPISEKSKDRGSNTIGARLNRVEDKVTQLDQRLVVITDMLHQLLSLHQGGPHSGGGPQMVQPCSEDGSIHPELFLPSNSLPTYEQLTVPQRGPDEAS

[2] = Pharmacokinetic study in the rat (i.v. and p.o.); assay type: in vivo, male, Sprague-Dawley rats
Procedure: Pharmacokinctic studies were conducted in rats to extend the finding that selected fluoro substitution of the phenyl rings increased metabolic stability in vitro to an in vivo study. […] Blood samples were collected at 9 time points from predosing to 24 hours after dosing p.o. and at 11 time points from pre-dosing to 24 hours after i.v. dosing. Samples were prepared and analyzed for compound plasma concentration using LC-MS/MS.

Gardos channel [3] = molecular target: T2, Gardos channel (Homo sapiens, UniProt O15554); experiment: Inhibition of the Gardos channel in red blood cells (86Rb flux); assay type: cell-based; details: for improvement in potency (Gardos) over non-fluorinated triphenylacetamide 20: vs. compound 20
T2 construct: endogenous in cells; host or cells: red blood cells from heparinized whole blood
T2 sequence (O15554 whole entry): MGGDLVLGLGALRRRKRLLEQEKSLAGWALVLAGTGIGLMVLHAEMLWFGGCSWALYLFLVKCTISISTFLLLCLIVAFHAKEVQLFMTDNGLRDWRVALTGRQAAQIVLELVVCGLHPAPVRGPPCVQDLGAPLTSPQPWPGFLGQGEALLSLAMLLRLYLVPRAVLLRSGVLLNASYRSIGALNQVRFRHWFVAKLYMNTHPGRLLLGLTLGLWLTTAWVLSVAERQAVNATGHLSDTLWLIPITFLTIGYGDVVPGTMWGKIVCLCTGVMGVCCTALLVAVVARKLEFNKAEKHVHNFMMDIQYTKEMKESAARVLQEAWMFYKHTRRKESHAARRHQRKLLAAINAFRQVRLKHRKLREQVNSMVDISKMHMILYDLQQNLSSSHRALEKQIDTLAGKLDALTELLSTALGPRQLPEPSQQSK
Excerpt: The activity of the compounds of the invention towards ion channels, such as the Gardos channel can be assayed utilizing methods known in the art. […] Utilizing the methods described in this reference, both the percent inhibition of the Gardos channel and the IC50 of the compounds of the invention can be assayed.
In an exemplary assay, the inhibition by test compounds of an erythrocyte Gardos channel can be assayed using human red blood cells. The degree of inhibition can be measured using a detectable material such as ^86 Rb. In an exemplary assay, utilizing ^86 Rb, Gardos channel inhibition can be assayed by exposing red blood cells to ^86 Rb and a test compound and measuring the amount of ^86 Rb taken up by the cells. Numerous variations on this assay will be apparent to those of skill in the art.
Briefly, erythrocytes are exposed to a test compound and a ^86 Rb-containing medium. The initial rate of ^86 Rb transport can be calculated from a parameter such as the linear least square slope of ^86 Rb uptake by the cell(s). Inhibitory constants can be calculated by standard methods using computer-assisted nonlinear curve fitting.
Heparinized whole blood was washed three times with Modified Flux Buffer (MFB: 140 mM NaCl; 5 mM KCl; 10 mM Tris; 0.1 mM EGTA; pH=7.4). Washed cells were then incubated for 3 hours with ^86 Rb (5 μCi/mL). After this incubation period, the RBCs were washed three times with cold MFB. Washed ^86 Rb loaded RBCs were then incubated with a test compound of the invention for 10 minutes. ^86 Rb flux was then initiated by the addition of 20 μL/mL of a MFB solution containing 10 mM CaCl2 and 100 μM A23187, a calcium ionophore. This yielded a final concentration of 200 μM CaCl2 and 2 μM A23187 n the incubation medium. Cells were incubated for 10 minutes, spun down and the supernatant was removed. Samples were counted in a Wallace Microbeta liquid scintillation counter by Cerenkov emission. Total RBC ^86 Rb content was determined by lysing the RBCs with water and then precipitating protein using a 50:50 mixture of ethanol:chloroform. After a 20 minute microfuge spin, the aqueous and organic layers separated and the aqueous layer was removed and counted. Efflux is expressed as a percentage of the initial cell content of ^86 Rb.

IKs vs. Gardos = experiment: Selectivity for the Gardos channel relative to IKs (ratio of IC50s)
[4] = system: Gardos channel of normal and sickle erythrocytes; details: cited from earlier work; for inhibition of Gardos channel / Ca2+-activated K+ flux: in vitro
Gardos channel [5] = details: oral therapy; cited from earlier work
red cell Gardos channel = details: oral administration; cited from earlier work
sickled cells = details: combined with a compound which stabilizes the oxyconformation of Hb S; cited from earlier work
IKs [6] = details: myocytes; cited from earlier work
[7] = erythrocytes, 86Rb, read-out: IC50 Potency vs. Gardos

Structure (SMILES)	remaining at 2 h, 5 µM (in vitro) [%]	IC50 (IKs [1]) [nM]	IC50 (Gardos channel [3]; [7]) [nM]	other results
NC(=O)C(c1ccccc1)(c1ccc(F)cc1)c1ccccc1F (stereo not shown) [Compound 1, (2-fluorophenyl)-(4-fluorophenyl)phenylacetamide]	64	2000		oral bioavailability ([2]; 10 mg/kg p.o., 1 mg/kg i.v., rat): 35%
NC(=O)C(c1ccccc1)(c1ccccc1)c1ccccc1F [Compound 2]	80		15	improvement in potency (Gardos) over non-fluorinated triphenylacetamide 20 (Gardos channel [3]): 330%
NC(=O)C(c1ccccc1)(c1ccc(F)cc1)c1ccc(F)cc1 [Compound 3, bis(4-fluorophenyl)phenylacetamide]	76	1500		metabolised at 2 h, 5 µM (in vitro): 24%; bioavailability ([2]; plasma, po, 10 mg/kg p.o., 1 mg/kg i.v., rat): 100%
NC(=O)C(c1ccccc1)(c1ccccc1)c1ccc(F)cc1 [Compound 4]	80		13	
NC(=O)C(c1ccc(F)cc1)(c1ccc(F)cc1)c1ccccc1F [Compound 5, bis(4-fluorophenyl)-2-fluorophenylacetamide]	71	1400		metabolised at 2 h, 5 µM (in vitro): 29%; fold more potent than clotrimazole towards the Gardos channel (Gardos channel [3]): ~10 fold; fold more selective for the Gardos channel versus IKs than clotrimazole (IKs vs. Gardos; vs. clotrimazole): ~18 fold and ~17 fold; fold more selective for the Gardos channel than the unsubstituted triphenylacetamide parent 20 (IKs vs. Gardos; vs. compound 20): approximately 6 fold
NC(=O)C(c1ccccc1)(c1ccccc1)c1c(F)c(F)c(F)c(F)c1F [Compound 6]			37	
NC(=O)C(c1ccccc1)(c1ccccc1)c1ccc(F)c(F)c1 [Compound 7]	15	1200		metabolised at 2 h, 5 µM (in vitro): 85%
NC(=O)C(c1ccccc1)(c1ccccc1)c1ccccc1Cl [Compound 18]	6	7300		IC50 (Gardos channel [3]): 10 nM; elimination from the bloodstream ([2]; 1 mg/kg i.v., rat): fast; plasma level after oral dosing ([2]; 10 mg/kg p.o., 2 hour post-dose sample): no detectable levels; plasma level after oral dosing ([2]; 10 mg/kg p.o., between 0.25 and 1 hour after dosing): 31 to 65 ng/mL; oral bioavailability ([2]; 10 mg/kg p.o., rat): very poor oral bioavailability
Clc1ccccc1C(c1ccccc1)(c1ccccc1)n1ccnc1 [Compound 19, clotrimazole]	4			inhibition of Gardos channel / Ca2+-activated K+ flux [4]: specific, potent inhibitor of the Gardos channel of normal and sickle erythrocytes; also recorded: blocks Ca^2+ -activated K^+ flux and cell dehydration in sickle erythrocytes; effects of oral clotrimazole in patients with sickle cell disease (Gardos channel [5]): induces inhibition of the Gardos channel and reduces erythrocyte ehydration; effects of oral clotrimazole in SAD-1 mouse (red cell Gardos channel): inhibition of the red cell Gardos channel, increased red cell K^+ content, a decreased mean corpuscular hemoglobin concentration (MCHC) and decreased cell density; clogging rate of a micropore filter (sickled cells): additive reduction in the clogging rate of a micropore filter; interaction with IKs (IKs [6]): interact with the slow component of the delayed rectifier potassium current in myocytes, IKs
Clc1ccc(CCC(Cn2ccnc2)Sc2c(Cl)cccc2Cl)cc1 (stereo not shown) [butoconazole]				sickle cell dehydration [4]: effective at reducing sickle cell dehydration; inhibition of Gardos channel / Ca2+-activated K+ flux [4]: inhibit the Gardos channel in vitro
Clc1ccc(COC(Cn2ccnc2)c2ccc(Cl)cc2Cl)cc1 (stereo not shown) [econazole]				sickle cell dehydration [4]: effective at reducing sickle cell dehydration; inhibition of Gardos channel / Ca2+-activated K+ flux [4]: inhibit the Gardos channel in vitro
Clc1ccc(COC(Cn2ccnc2)c2ccc(Cl)cc2Cl)c(Cl)c1 (stereo not shown) [miconazole]				sickle cell dehydration [4]: effective at reducing sickle cell dehydration; inhibition of Gardos channel / Ca2+-activated K+ flux [4]: inhibit the Gardos channel in vitro

Now from value to compound, other results behind:

remaining at 2 h, 5 µM (in vitro) [%]	IC50 (IKs [1]) [nM]	IC50 (Gardos channel [3]; [7]) [nM]	Structure (SMILES)	other results
39	5700	34	NC(=O)C(c1ccccc1)(c1ccccc1)c1ccc(F)cc1F [Compound 8]	metabolised at 2 h, 5 µM (in vitro): 61%
3	3200	30	NC(=O)C(c1ccccc1)(c1cccc(F)c1)c1cccc(F)c1 [Compound 9]	metabolised at 2 h, 5 µM (in vitro): 97%
59	1300	12	NC(=O)C(c1ccc(F)cc1)(c1cccc(F)c1)c1cccc(F)c1 [Compound 10]	Selectivity (IKs vs. Gardos) (IKs vs. Gardos; ratio of IC50 towards IKs vs. IC50 towards the Gardos channel): 110
78	1300	5	NC(=O)[C@@](c1ccccc1)(c1ccc(F)cc1)c1ccccc1F [Compound 11]	increase in potency (Gardos) of 11 over 9 (Gardos channel [3]): 600%
44	1800	5	NC(=O)[C@](c1ccccc1)(c1ccc(F)cc1)c1ccccc1F [Compound 12]	improvement in potency (Gardos) of 12 over 8 (Gardos channel [3]): ~700%; increase in potency (Gardos) over clotrimazole (Gardos channel [3]): 2000%; improvement in potency (Gardos) over non-fluorinated triphenylacetamide 20 (Gardos channel [3]): 1000%
53	1100		NC(=O)C(c1ccc(F)cc1)(c1ccc(F)cc1)c1ccc(F)cc1 [Compound 13]	
46			NC(=O)C(c1ccccc1)(c1ccccc1F)c1ccccc1F [Compound 14]	
53			NC(=O)C(c1ccc(F)cc1)(c1ccccc1F)c1ccccc1F [Compound 15]	
57	1900		NC(=O)C(c1ccc(F)cc1)(c1ccc(F)cc1)c1cccc(F)c1 [Compound 16, bis(4-fluorophenyl)-3-fluorophenylacetamide]	
18	4000		NC(=O)C(c1cccc(F)c1)(c1cccc(F)c1)c1cccc(F)c1 [Compound 17]	metabolised at 2 h, 5 µM (in vitro): 82%
13	1100	50	NC(=O)C(c1ccccc1)(c1ccccc1)c1ccccc1 [Compound 20, reference compound]	metabolised at 2 h, 5 µM (in vitro): 87%
35	2600		OC(c1ccccc1)(c1ccccc1)c1ccccc1Cl [Compound 21, reference compound]	IC50 (Gardos channel [3]): 500 nM
8	2600	100	CNC(=O)C(c1ccccc1)(c1ccccc1)c1ccccc1 [Compound 22, reference compound]	
